# Laboratory results reported in US4188378A, “Anticancer and antiviral activity of 9-β-D-arabinofuranosyl-2-fluoroadenine” (The United States of America as represented by the …, priority 1978, dated 1980).
# “Also recorded” adds a separate entry of the source. Where two headings read alike, the source gives them in different places.
# Columns and labels:
# [1] = tested on: Parainfluenza Virus Type 3; assay: In vitro antiviral activity, Virus Rating; assay type: cell-based; conditions: average VR adjusted for number of Microtiter wells; VR ≤0.5 no significant activity
# Source text: (§1) *Virus Rating (VR): A weighted measurement of antiviral activity which
# (§2) takes into account the degree of virusspecific cytopathogenic effect
# (§3) (cpe)inhibition, toxicity, and virus concentration, as determined by a
# (§4) modification of the methods of Ehrlich et al. (Ann. N.Y. Acad. Sci. 140:7
# (§5) 1965). In our experience, a VR≥1.0 indicates definite antiviral
# (§6) activity; a VR of 0.5-0.9 indicates moderate antiviral activity; and a VR
# (§7) ≤0.5 indicates no significant antiviral activity.
# (§8) ^+ Average VR adjusted for number of Microtiter wells employed.
# Human Cytomegalovirus = assay: In vitro antiviral activity, Virus Rating; assay type: cell-based; conditions: average VR adjusted for number of Microtiter wells; VR ≤0.5 no significant activity
# Source text: as §1, §2, §3, §4, §5, §6, §7, §8
# Rhinovirus Type 1A = assay: In vitro antiviral activity, Virus Rating; assay type: cell-based; conditions: average VR adjusted for number of Microtiter wells; VR ≤0.5 no significant activity
# Source text: as §1, §2, §3, §4, §5, §6, §7, §8
# adenosine deaminase = assay: Deamination by adenosine deaminase in vitro and in vivo; assay type: in vitro ADME
# Source text: (§9) Inhibition of DNA polymerase is considered to be responsible for the biologic activity of AraA. The levels of F-AraATP attainable in leukemia L1210 cells in mice from the administration of 2-F-AraA are much higher than the level of AraATP atainable in these cells after administration of AraA. As a result of the maintenance of these levels of the inhibitor, F-AraATP, in them, the leukemia cells are effectively destroyed in animals. […] 2-F-AraA was also active against leukemia L1210 when administered by the oral route.
# (§10) It has been noted that the antitumor activity of the parent compound, 9-β-D-arabinofuranosyladenine (AraA), is enhanced by inhibition of adenosine deaminase and inhibition of DNA synthesis in tumor cells by AraA also is enhanced by concurrent inhibition of adenosine deaminase. […] This observation that 2-fluoroadenosine is not such a substrate for adenosine deaminase led to the synthesis of 9-β-D-arabinofuranosyl-2-fluoroadenine (2-F-AraA). […] The intracellular concentration of 2-F-AraATP in L1210 cells was 45, 156 and 220 nanomoles per 10^9 cells three hours after intraperitoneal treatment with 80, 150 and 400 mg/kg of 2-F-AraA.
# L1210 cells [2] = assay: Macromolecular synthesis in L1210 cells in culture (radiolabel incorporation); assay type: cell-based; conditions: for activity at 1 µg/mL / activity at 3 µg/mL / activity at 10 µg/mL / inhibition at 10 µg/mL: Mus musculus, L1210; for activity at 1 µg/mL: 1.0 μg/ml; for activity at 3 µg/mL: 3.0 μg/ml; for activity at 10 µg/mL: 10.0 μg/ml
# Protocol: ^a Inhibitor was added to L1210 cells growing in culture; radioactive
# substrate was added 30 min. later.
# hrs after addition of radioactive substrate to culture medium.
# ^b Incorporation of [C^3 H3 thymidine or [5^3 Huridine
# ^c Incorporation of [5^3 Huridine into RNA.
# ^d Incorporation of [4,5^3 HL-leucine into protein.
# P388 leukemia = assay: Therapeutic activity against P388 leukemia in mice; assay type: in vivo; conditions: for % increase in median life span: days 1,5,9 after implant of 10^6 cells
# Protocol: (§11) Relative to activity against leukemia and antiviral activity, the following summation was found: Levels of F-AraATP in acid-soluble extracts prepared from L1210 and P388 leukemia cells in mice treated with 2-F-AraA (80 mg/kg) were determined by HPLC. […] Inhibition of DNA synthesis by 2-F-AraA (80 mg/kg) in L1210 and P388 leukemia cells in vivo was pronounced for 7 hours after treatment. […] 2-F-AraA was effective against P388 leukemia; % increase in median life span of mice treated with 80 and 52 mg/kg (q3hrsx8; days 1,5,9 after implant of 10^6 cells) was 170% and 150%.
# L1210 cells [3] = assay: Intracellular 2-F-AraATP levels in L1210 cells of treated mice; assay type: in vivo; conditions: for level of F-AraATP in acid-soluble extracts (HPLC): L1210 cells, 80 mg/kg
# Source text: as §10, §11
# Vaccinia Virus = assay type: cell-based
# P388 leukemia cells = assay: DNA synthesis in P388 leukemia cells in vivo; design: species or system mice; conditions: 80 mg/kg, for 7 hours after treatment
# Protocol: as §11
# Leukemia L1210 = assay: Therapeutic activity against leukemia L1210 implanted i.p. in mice; assay type: in vivo
# Source text: as §9
# ^a 10^5 L1210 ascites cells implanted i.p. on day 0.
# ^b Treatments reported were selected from a range of dose levels from
# lethally toxic to apparently nontoxic.
# more than 16% (1/6 treated mice) dying without gross evidence of
# progressive leukemia (splenomegaly), except those treated orally, in whic
# ^c i.p. = intraperitoneal; oral = drug administered directly into
# ^d % ILS = % increase in life span, compared to untreated control;
# excluding 60day survivors.
# ^e Based on median day of death in dying animals only. Figures in
# parentheses based on % survivors.
# 2-F-AraA was given i.p. or orally on the basis of average mouse body weight. Therapeutic activity based on observed increase in median life span of treated animals over untreated controls and on estimates of the number of viable L1210 cells present at the end of treatment is summarized in Table 2.
# L1210 cells [4] = assay: DNA synthesis in L1210 cells in vivo; design: species or system mice; conditions: 80 mg/kg, for 7 hours after treatment
# Protocol: Protein synthesis was less affected and RNA synthesis was not inhibited under the same experimental conditions.
# as §11
# [5] = read-out: DNA synthesis, TdR-3H incorporation, Treated as % of Control
# [6] = read-out: DNA synthesis, UR-3H incorporation, Treated as % of Control
# [7] = read-out: Protein synthesis, Leu-3H incorporation, Treated as % of Control
# [8] = read-out: RNA synthesis, UR-3H incorporation, Treated as % of Control
# [9] = same experimental conditions as Table 1
# [10] = Expt. 1, 100 mg/kg/dose q3h × 8, days 1,5,9, i.p.
# [11] = Expt. 2, 100 mg/kg/dose q6h × 4, days 1,5,9, i.p.
# [12] = Expt. 2, 150 mg/kg/dose q3h × 8, days 1,5,9, oral
# [13] = Expt. 2, 400 mg/kg/dose q12h × 2, days 1,5,9, i.p.
# [14] = second line of the same regimen: 100 mg/kg/dose q3h × 8, days 1,5,9, i.p.
smiles,measurement,setting,value
"Nc1nc(F)nc2c1ncn2[C@@H]1O[C@H](CO)[C@@H](O)[C@@H]1O [2-F-AraA, 9-β-D-arabinofuranosyl-2-fluoroadenine]",Virus Rating (VR),[1],0
same,Virus Rating (VR),Human Cytomegalovirus,0.3
same,Virus Rating (VR),Rhinovirus Type 1A,0
same,deamination by adenosine deaminase,adenosine deaminase,not a substrate for adenosine deaminase; also recorded: not deaminated; also recorded: completely resistant to deamination
same,DNA synthesis in L1210 cells in culture,L1210 cells [2],inhibited DNA synthesis
same,inhibition of RNA synthesis,L1210 cells [2]; 10 μg/ml,generally not inhibited
same,activity at 1 µg/mL,L1210 cells [2]; [5],102%
same,activity at 1 µg/mL,L1210 cells [2]; [6],84%
same,activity at 1 µg/mL,L1210 cells [2]; [7],119%
same,activity at 1 µg/mL,L1210 cells [2]; [8],135%
same,activity at 3 µg/mL,L1210 cells [2]; [5],49%
same,activity at 3 µg/mL,L1210 cells [2]; [6],36%
same,activity at 3 µg/mL,L1210 cells [2]; [7],86%
same,activity at 3 µg/mL,L1210 cells [2]; [8],163%
same,activity at 10 µg/mL,L1210 cells [2]; [5],18%
same,activity at 10 µg/mL,L1210 cells [2]; [6],11%
same,activity at 10 µg/mL,L1210 cells [2]; [7],66%
same,activity at 10 µg/mL,L1210 cells [2]; [8],137%
same,inhibition at 10 µg/mL,"L1210 cells [2]; 10 μg/ml, read-out: inhibition of DNA synthesis",90%
same,inhibition at 10 µg/mL,"L1210 cells [2]; 10 μg/ml, read-out: inhibition of protein synthesis",30%
same,Protein synthesis in L1210 cells in culture,L1210 cells [2]; [9],less affected
same,RNA synthesis in L1210 cells in culture,L1210 cells [2]; [9],not inhibited
same,% increase in median life span,P388 leukemia; 52 mg/kg q3hrsx8,150%
same,% increase in median life span,P388 leukemia; 80 mg/kg q3hrsx8,170%
same,activity against P388 leukemia in mice,"P388 leukemia; mouse, in vivo",effective; also recorded: active
same,2-F-AraATP in L1210 cells,L1210 cells [3]; 9 and 18 hours after a single dose of 80 and 150 mg/kg,not found
same,2-F-AraATP in L1210 cells,L1210 cells [3]; 18 hours after a dose of 400 mg/kg,significant levels were present
same,intracellular pools of 2-F-AraATP in L1210 cells,"L1210 cells [3]; BDFl mice treated with 2-F-AraA alone, versus AraATP from AraA plus adenosine deaminase inhibitor",comparable
same,level of F-AraATP in acid-soluble extracts (HPLC),L1210 cells [3]; 1 to 6 hours after treatment,30-50 nmoles/gm cells
same,level of F-AraATP in acid-soluble extracts (HPLC),L1210 cells [3]; 9 hours after treatment,none was detected
same,"levels of F-AraATP attainable in leukemia L1210 cells in mice, compared with AraATP after AraA",L1210 cells [3]; after administration of 2-F-AraA,much higher
same,Virus Rating (VR),"Vaccinia Virus; average VR adjusted for number of Microtiter wells, VR≥1.0 definite activity",1.3
same,activity against the virus,Vaccinia Virus; grown in H.Ep.-2 cells in culture,demonstrated activity
same,inhibition of DNA synthesis in vivo,P388 leukemia cells,pronounced
same,increase in life span of animals dying of leukemia,"Leukemia L1210; 100 mg/kg i.p. once every three hours on days 1, 5, 9, 10^5 cells, 4 of 6 animals",123-155%
same,animals deemed recovered from the disease,"Leukemia L1210; 100 mg/kg i.p. once every three hours on days 1, 5, 9, of 6 animals",two
same,therapeutic result compared with the 100 mg/kg q3h regimen,"Leukemia L1210; 400 mg/kg twice a day on days 1, 5, 9",Comparable results
same,therapeutic activity against L1210 leukemia,"Leukemia L1210; 2-F-AraA alone, BDFl mice, 10^5 cells i.p.",reproducible therapeutic activity; also recorded: therapeutically effective
same,60-Day Survivors,Leukemia L1210; [10],2/6
same,Estimated No. L1210 Cells Surviving Therapy (based on median day of death),Leukemia L1210; [10],4 × 10^4
same,"Estimated No. L1210 Cells Surviving Therapy (in parentheses, based on % survivors)",Leukemia L1210; [10],1.1
same,Median % ILS,Leukemia L1210; [10],123%
same,"Median Day of Death (Dying Mice Only), Treated","Leukemia L1210; Expt. 1, 100 mg/kg/dose q3h × 8, days 1,5,9, i.p., control 8.5",19
same,60-Day Survivors,Leukemia L1210; [11],0/6
same,Estimated No. L1210 Cells Surviving Therapy (based on median day of death),Leukemia L1210; [11],3 × 10^6
same,Median % ILS,Leukemia L1210; [11],83%
same,"Median Day of Death (Dying Mice Only), Treated","Leukemia L1210; Expt. 2, 100 mg/kg/dose q6h × 4, days 1,5,9, i.p., control 9",16.5
same,Estimated No. L1210 Cells Surviving Therapy (based on median day of death),Leukemia L1210; [12],2 × 10^7
same,Median % ILS,Leukemia L1210; [12],66%
same,"Median Day of Death (Dying Mice Only), Treated","Leukemia L1210; Expt. 2, 150 mg/kg/dose q3h × 8, days 1,5,9, oral, control 9",15
same,60-Day Survivors,Leukemia L1210; [13],1/6
same,Estimated No. L1210 Cells Surviving Therapy (based on median day of death),Leukemia L1210; [13],2 × 10^3
same,"Estimated No. L1210 Cells Surviving Therapy (in parentheses, based on % survivors)",Leukemia L1210; [13],1.8
same,Median % ILS,Leukemia L1210; [13],144%
same,"Median Day of Death (Dying Mice Only), Treated","Leukemia L1210; Expt. 2, 400 mg/kg/dose q12h × 2, days 1,5,9, i.p., control 9",22
same,treated mice dying without gross evidence of progressive leukemia (splenomegaly),Leukemia L1210; i.p. treatments reported in Table 2 (1/6 treated mice),≤ 16%
same,toxicity over the dose range tested,Leukemia L1210; mice treated orally,no toxic levels
same,activity against leukemia L1210,Leukemia L1210; oral route,some therapeutic activity; also recorded: active
same,60-Day Survivors,Leukemia L1210; [14],1/6
same,Estimated No. L1210 Cells Surviving Therapy (based on median day of death),Leukemia L1210; [14],5 × 10^2
same,"Estimated No. L1210 Cells Surviving Therapy (in parentheses, based on % survivors)",Leukemia L1210; [14],1.8
same,Median % ILS,Leukemia L1210; [14],155%
same,"Median Day of Death (Dying Mice Only), Treated","Leukemia L1210; second line of the same regimen: 100 mg/kg/dose q3h × 8, days 1,5,9, i.p., control 9",23
same,inhibition of DNA synthesis in vivo,L1210 cells [4],pronounced
